Laboratory results from patent EP0908457B1, “3-(1,2-benzisothiazol- and isoxazol-5-Y1)-2,4(1H,3H)-pyrimidinedione or thione and 3-(1,2-benzisothiazol- and isoxazol-5-y1)-4(3H)-pyrimidinone or thione herbicidal agents” (BASF AKTIENGESELLSCHAFT, priority 1997, dated 1999).

Columns and labels:
[1] = test system: Echinochloa oryzoides (Ard.) Fritsch.; test: Preemergence weed control under flooded paddy conditions, ECHORC (Watergrass (Calif.)); format: in vivo; settings: preemergence weeds, flooded paddy, rated three to four weeks after treatment; also: meaning of each grade not given here
[2] = test system: Cyperus iria; test: Preemergence weed control under flooded paddy conditions, CYPIR (Rice Flatsedge); format: in vivo; settings: preemergence weeds, flooded paddy, rated three to four weeks after treatment; also: meaning of each grade not given here
[3] = test system: Oryza sativa, (L.) Tebonnet; test: Rice tolerance to post-transplant applications under flooded paddy conditions (Example 187), ORYSAT (Rice, Tebonnet); settings: rated three to four weeks after treatment
[4] = test system: Cyperus serotinus, Rottb.; test: Preemergence weed control under flooded paddy conditions, CYPSE (Flatsedge); format: in vivo; settings: preemergence weeds, rated three to four weeks after treatment; also: meaning of each grade not given here
[5] = test system: Sagittaria pygmaea, L.; test: Preemergence weed control under flooded paddy conditions, SAGPY (Arrowhead (Pygmaea)); format: in vivo; settings: preemergence weeds, flooded paddy, rated three to four weeks after treatment; also: meaning of each grade not given here
[6] = test system: Monochoria vaginalis, Presl.; test: Preemergence weed control under flooded paddy conditions, MOOVA (Monochoria); format: in vivo; settings: preemergence weeds, flooded paddy, rated three to four weeks after treatment; also: meaning of each grade not given here

Row | SMILES | herbicidal effect rating, ECHORC ([1]; 0.0313 kg/ha) | herbicidal effect rating, ECHORC ([1]; 0.0625 kg/ha) | herbicidal effect rating, ECHORC ([1]; 0.1250 kg/ha) | herbicidal effect rating, ECHORC ([1]; 0.2500 kg/ha) | herbicidal effect rating, CYPIR ([2]; 0.0313 kg/ha) | herbicidal effect rating, CYPIR ([2]; 0.0625 kg/ha) | herbicidal effect rating, CYPIR ([2]; 0.1250 kg/ha) | herbicidal effect rating, CYPIR ([2]; 0.2500 kg/ha) | herbicidal effect rating, ORYSAT (rice tolerance) ([3]; 0.0313 kg/ha) | herbicidal effect rating, ORYSAT (rice tolerance) ([3]; 0.0625 kg/ha) | herbicidal effect rating, ORYSAT (rice tolerance) ([3]; 0.1250 kg/ha) | herbicidal effect rating, ORYSAT (rice tolerance) ([3]; 0.2500 kg/ha) | herbicidal effect rating, CYPSE ([4]; 0.0313 kg/ha) | herbicidal effect rating, CYPSE ([4]; 0.0625 kg/ha) | herbicidal effect rating, CYPSE ([4]; 0.1250 kg/ha) | herbicidal effect rating, CYPSE ([4]; 0.2500 kg/ha) | herbicidal effect rating, SAGPY ([5]; 0.0313 kg/ha) | herbicidal effect rating, SAGPY ([5]; 0.0625 kg/ha) | herbicidal effect rating, SAGPY ([5]; 0.1250 kg/ha) | herbicidal effect rating, SAGPY ([5]; 0.2500 kg/ha) | further results
1 | CCOCc1nsc2ccc(-n3c(=O)cc(C(F)(F)F)n(C)c3=O)cc12 [Example 195, 3-[3-(Ethoxymethyl)-1,2-benzisothiazol-5-yl]-1-methyl-6-(trifluoromethyl)-2,4(1H,3H)-pyrimidinedione] | 2.0 | 3.0 | 6.0 | 9.0 | 0.0 | 2.0 | 4.0 | 9.0 | 6.0 | 7.0 | 9.0 | 9.0 | 0.0 | 0.0 | 2.0 | 7.0 | 0.0 | 0.0 | 1.0 | 2.0 | herbicidal effect rating, MOOVA ([6]; 0.0313 kg/ha): 9.0; herbicidal effect rating, MOOVA ([6]; 0.0625 kg/ha): 9.0; herbicidal effect rating, MOOVA ([6]; 0.1250 kg/ha): 9.0; herbicidal effect rating, MOOVA ([6]; 0.2500 kg/ha): 9.0
2 | C=CCOCc1nsc2ccc(-n3c(=O)cc(C(F)(F)F)n(C)c3=O)cc12 [Example 196, 3-{3-[(Allyloxy)methyl]-1,2-benzisothiazol-5-yl}-1-methyl-6-(trifluoromethyl)-2,4(1H,3H)-pyrimidinedione] | 0.0 | 2.0 | 4.0 | 4.0 | 0.0 | 0.0 | 1.0 | 4.0 | 4.0 | 6.0 | 8.0 | 8.0 | 2.0 | 4.0 | 6.0 | 9.0 | 0.0 | 0.0 | 0.0 | 0.0 | herbicidal effect rating, MOOVA ([6]; 0.0313 kg/ha): 9.0; herbicidal effect rating, MOOVA ([6]; 0.0625 kg/ha): 9.0; herbicidal effect rating, MOOVA ([6]; 0.1250 kg/ha): 9.0; herbicidal effect rating, MOOVA ([6]; 0.2500 kg/ha): 9.0
3 | Cn1c(C(F)(F)F)cc(=O)n(-c2ccc3snc(COCCCl)c3c2)c1=O [Example 198, 3-{3-[(2-Chloroethoxy)methyl]-1,2-benzisothiazol-5-yl}-1-methyl-6-(trifluoromethyl)-2,4(1H,3H)-pyrimidinedione] | 4.0 | 6.0 | 9.0 | 9.0 | 0.0 | 2.0 | 4.0 | 7.0 | 4.0 | 7.0 | 8.0 | 9.0 | 0.0 | 2.0 | 4.0 | 8.0 | 0.0 | 0.0 | 2.0 | 4.0 | herbicidal effect rating, MOOVA ([6]; 0.0313 kg/ha): 9.0; herbicidal effect rating, MOOVA ([6]; 0.0625 kg/ha): 9.0; herbicidal effect rating, MOOVA ([6]; 0.1250 kg/ha): 9.0; herbicidal effect rating, MOOVA ([6]; 0.2500 kg/ha): 9.0
4 | Cn1c(C(F)(F)F)cc(=O)n(-c2ccc3snc(C(CCl)CCl)c3c2)c1=O [Example 199, 3-{3-[2-Chloro-1-(chloromethyl)ethyl]-1,2-benzisothiazol-5-yl}-1-methyl-6-(trifluoromethyl)-2,4(1H,3H)-pyrimidinedione] | 2.0 | 4.0 | 7.0 | 7.0 | 0.0 | 2.0 | 4.0 | 8.0 | 3.0 | 4.0 | 6.0 | 8.0 | 0.0 | 0.0 | 0.0 | 0.0 | 0.0 | 0.0 | 0.0 | 0.0 | herbicidal effect rating, MOOVA ([6]; 0.0313 kg/ha): 8.0; herbicidal effect rating, MOOVA ([6]; 0.0625 kg/ha): 9.0; herbicidal effect rating, MOOVA ([6]; 0.1250 kg/ha): 9.0; herbicidal effect rating, MOOVA ([6]; 0.2500 kg/ha): 9.0
5 | CCOCCOCc1nsc2ccc(-n3c(=O)cc(C(F)(F)F)n(C)c3=O)cc12 [Example 200, 3-{3-[(2-Ethoxyethoxy)methyl]-1,2-benzisothiazol-5-yl}-1-methyl-6-(trifluoromethyl)-2,4(1H,3H)-pyrimidinedione] | 0.0 | 2.0 | 6.0 | 9.0 | 4.0 | 6.0 | 7.0 | 8.0 | 7.0 | 7.0 | 9.0 | 9.0 | 0.0 | 0.0 | 2.0 | 7.0 | 0.0 | 0.0 | 0.0 | 4.0 | herbicidal effect rating, MOOVA ([6]; 0.0313 kg/ha): 9.0; herbicidal effect rating, MOOVA ([6]; 0.0625 kg/ha): 9.0; herbicidal effect rating, MOOVA ([6]; 0.1250 kg/ha): 9.0; herbicidal effect rating, MOOVA ([6]; 0.2500 kg/ha): 9.0
6 | CC(C)SCc1nsc2ccc(-n3c(=O)cc(C(F)(F)F)n(C)c3=O)cc12 [Example 202, 3-{3-[(Isopropylthio)methyl]-1,2-benzisothiazol-5-yl]-1-methyl-6-(trifluoromethyl)-2,4(1H,3H)-pyrimidinedione] | 1.0 | 1.0 | 2.0 | 2.0 | 9.0 | 9.0 | 9.0 | 9.0 | 3.0 | 4.0 | 5.0 | 6.0 | 0.0 | 0.0 | 0.0 | 0.0 | 0.0 | 0.0 | 0.0 | 0.0 | herbicidal effect rating, MOOVA ([6]; 0.0313 kg/ha): 0.0; herbicidal effect rating, MOOVA ([6]; 0.0625 kg/ha): 0.0; herbicidal effect rating, MOOVA ([6]; 0.1250 kg/ha): 0.0; herbicidal effect rating, MOOVA ([6]; 0.2500 kg/ha): 0.0
7 | Cn1c(C(F)(F)F)cc(=O)n(-c2ccc3snc(COCC(F)F)c3c2)c1=O [Example 203, 3-{3-[(2,2-Difluoroethoxy)methyl]-1,2-benzisothiazol-5-yl}-1-methyl-6-(trifluoromethyl)-2,4(1H,3H)-pyrimidinedione] | 0.0 | 0.0 | 2.0 | 4.0 | 9.0 | 9.0 | 9.0 | 9.0 | 4.0 | 6.0 | 6.0 | 7.0 | 0.0 | 0.0 | 2.0 | 6.0 | 0.0 | 0.0 | 2.0 | 4.0 | herbicidal effect rating, MOOVA ([6]; 0.0313 kg/ha): 0.0; herbicidal effect rating, MOOVA ([6]; 0.0625 kg/ha): 0.0; herbicidal effect rating, MOOVA ([6]; 0.1250 kg/ha): 2.0; herbicidal effect rating, MOOVA ([6]; 0.2500 kg/ha): 8.0
